Data reported in PubChem BioAssay (NCI).
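A five-concentration, 48-hour dose response in 96-well plates underlies each endpoint, interpolated linearly between surrounding concentrations. At the GI50, growth is halved. The concentration for full growth arrest is given as TGI.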

How the values were obtained:
Experiment in all cases: growth of human tumour cells (NCI), 48 h
HS 578T breast = test system: HS 578T breast
K-562 leukemia = test system: K-562 leukemia
TK-10 renal = test system: TK-10 renal
786-0 renal = test system: 786-0 renal
HCT-116 colon = test system: HCT-116 colon
MCF7 breast = test system: MCF7 breast
SK-OV-3 ovarian = test system: SK-OV-3 ovarian
ACHN renal = test system: ACHN renal
SK-MEL-5 melanoma = test system: SK-MEL-5 melanoma
SW-620 colon = test system: SW-620 colon
LOX IMVI melanoma = test system: LOX IMVI melanoma
UACC-257 melanoma = test system: UACC-257 melanoma
COLO 205 colon = test system: COLO 205 colon
HL-60(TB) leukemia = test system: HL-60(TB) leukemia
HOP-62 NSCLC = test system: HOP-62 NSCLC
SF-539 CNS = test system: SF-539 CNS
NCI/ADR-RES ovarian = test system: NCI/ADR-RES ovarian
NCI-H460 lung = test system: NCI-H460 lung
SNB-19 CNS = test system: SNB-19 CNS
RPMI-8226 leukemia = test system: RPMI-8226 leukemia
EKVX NSCLC = test system: EKVX NSCLC
OVCAR-3 ovarian = test system: OVCAR-3 ovarian
U251 CNS = test system: U251 CNS
OVCAR-8 ovarian = test system: OVCAR-8 ovarian
NCI-H23 lung = test system: NCI-H23 lung
KM12 colon = test system: KM12 colon
UACC-62 melanoma = test system: UACC-62 melanoma
UO-31 renal = test system: UO-31 renal
BT-549 breast = test system: BT-549 breast
PC-3 prostate = test system: PC-3 prostate
SF-295 CNS = test system: SF-295 CNS
OVCAR-5 ovarian = test system: OVCAR-5 ovarian
SF-268 CNS = test system: SF-268 CNS
HCT-15 colon = test system: HCT-15 colon
MDA-MB-231 breast = test system: MDA-MB-231 breast
M14 melanoma = test system: M14 melanoma
SN12C renal = test system: SN12C renal
DU-145 prostate = test system: DU-145 prostate
A549 NSCLC = test system: A549 NSCLC
MDA-MB-435 = test system: MDA-MB-435
HOP-92 NSCLC = test system: HOP-92 NSCLC
T-47D breast = test system: T-47D breast
CAKI-1 renal = test system: CAKI-1 renal

Work on CCSc1nc2[nH]c(=S)[nH]c(=S)c2c(-c2ccc(OC)c(OC)c2)c1C#N yielded a GI50 (HS 578T breast) of 13.2 µM, a TGI (HS 578T breast) of 45.8 µM and a GI50 (K-562 leukemia) of 9.68 µM. For the same compound, the TGI (K-562 leukemia) was 24.3 µM, the GI50 (TK-10 renal) was 43.5 µM and the TGI (TK-10 renal) was > 50 µM. For the same compound, the GI50 (786-0 renal) was 16.5 µM, the TGI (786-0 renal) was > 50 µM and the GI50 (HCT-116 colon) was 18.2 µM. For the same compound, the TGI (HCT-116 colon) was > 50 µM, the GI50 (MCF7 breast) was 22.1 µM and the TGI (MCF7 breast) was > 50 µM. The GI50 (SK-OV-3 ovarian) was 21.1 µM, the TGI (SK-OV-3 ovarian) was > 50 µM and the GI50 (ACHN renal) was 17.2 µM. The TGI (ACHN renal) was > 50 µM, the GI50 (SK-MEL-5 melanoma) was 6.86 µM and the TGI (SK-MEL-5 melanoma) was 21.5 µM. The GI50 (SW-620 colon) was 26.5 µM, the TGI (SW-620 colon) was > 50 µM and the GI50 (LOX IMVI melanoma) was 14.5 µM. For the same compound, the TGI (LOX IMVI melanoma) was > 50 µM, the GI50 (UACC-257 melanoma) was 16.5 µM and the TGI (UACC-257 melanoma) was 43.7 µM. For the same compound, the GI50 (COLO 205 colon) was 14.2 µM, the TGI (COLO 205 colon) was 45.2 µM and the GI50 (HL-60(TB) leukemia) was 16.1 µM. The TGI (HL-60(TB) leukemia) was > 50 µM, the GI50 (HOP-62 NSCLC) was 19.8 µM and the TGI (HOP-62 NSCLC) was > 50 µM. It also gave a GI50 (SF-539 CNS) of 14.8 µM, a TGI (SF-539 CNS) of 35.4 µM and a GI50 (NCI/ADR-RES ovarian) of 14.7 µM. For the same compound, the TGI (NCI/ADR-RES ovarian) was 32.8 µM, the GI50 (NCI-H460 lung) was 21 µM and the TGI (NCI-H460 lung) was > 50 µM. The GI50 (SNB-19 CNS) was 21.4 µM, the TGI (SNB-19 CNS) was > 50 µM and the GI50 (RPMI-8226 leukemia) was 16.8 µM. For the same compound, the TGI (RPMI-8226 leukemia) was > 50 µM, the GI50 (EKVX NSCLC) was 17 µM and the TGI (EKVX NSCLC) was > 50 µM. The GI50 (OVCAR-3 ovarian) was 11 µM, the TGI (OVCAR-3 ovarian) was 34.6 µM and the GI50 (U251 CNS) was 17.8 µM. For the same compound, the TGI (U251 CNS) was > 50 µM, the GI50 (OVCAR-8 ovarian) was 18.9 µM and the TGI (OVCAR-8 ovarian) was > 50 µM. For the same compound, the GI50 (NCI-H23 lung) was 18.6 µM, the TGI (NCI-H23 lung) was > 50 µM and the GI50 (KM12 colon) was 21.9 µM. For the same compound, the TGI (KM12 colon) was > 50 µM, the GI50 (UACC-62 melanoma) was 14.3 µM and the TGI (UACC-62 melanoma) was > 50 µM. It also gave a GI50 (UO-31 renal) of 11.7 µM, a TGI (UO-31 renal) of 36 µM and a GI50 (BT-549 breast) of 14.6 µM. For the same compound, the TGI (BT-549 breast) was 46.8 µM, the GI50 (PC-3 prostate) was 22.6 µM and the TGI (PC-3 prostate) was > 50 µM. For the same compound, the GI50 (SF-295 CNS) was 18.9 µM, the TGI (SF-295 CNS) was > 50 µM and the GI50 (OVCAR-5 ovarian) was > 50 µM. For the same compound, the TGI (OVCAR-5 ovarian) was > 50 µM, the GI50 (SF-268 CNS) was 15.9 µM and the TGI (SF-268 CNS) was 46.4 µM. The GI50 (HCT-15 colon) was 16.5 µM, the TGI (HCT-15 colon) was > 50 µM and the GI50 (MDA-MB-231 breast) was 9.75 µM. For the same compound, the TGI (MDA-MB-231 breast) was 40.3 µM, the GI50 (M14 melanoma) was 15.2 µM and the TGI (M14 melanoma) was > 50 µM. The GI50 (SN12C renal) was 16.9 µM, the TGI (SN12C renal) was > 50 µM and the GI50 (DU-145 prostate) was 21.8 µM. The TGI (DU-145 prostate) was > 50 µM, the GI50 (A549 NSCLC) was 14.8 µM and the TGI (A549 NSCLC) was > 50 µM. It also gave a GI50 (MDA-MB-435) of 10.5 µM, a TGI (MDA-MB-435) of 42.5 µM and a GI50 (HOP-92 NSCLC) of 19 µM. The TGI (HOP-92 NSCLC) was > 50 µM, the GI50 (T-47D breast) was 23.5 µM and the TGI (T-47D breast) was > 50 µM. The GI50 (CAKI-1 renal) was 17.4 µM and the TGI (CAKI-1 renal) was > 50 µM.
